Series [1] relates to Mus musculus. Briefly: Toxicity in C57Bl6/J mouse assessed as mortality at 1.5 mg/kg, ip. Also noted: dose 1.5 mg/kg, route intraperitoneal. The series is classed as organism-based. The conditions noted are these: in vivo.
Series [2] relates to Mus musculus. The experiment in a line: Toxicity in C57Bl6/J mouse assessed as induction of hemorrhage at 1.5 mg/kg, ip. Also noted: dose 1.5 mg/kg, route intraperitoneal. The conditions noted are these: in vivo. In kind it is organism-based.
Series [3] has as its system SiHa. Briefly: Cytotoxicity against human SiHa cells in glucose-containing medium at 10 uM under hypoxia condition after 72 hrs by MTT assay. The series is classed as functional, cell-based. On the technique in general: Formazan colour is commonly taken as a measure of viable cells.
Series [4] in a line: AUC (infinity) in mouse at 3 mg/kg, ip. In kind it is ADME, organism-based. Also noted: time infinity, dose 3 mg/kg, route intraperitoneal. As to conditions: plasma.
A short description of series [5]: Half life in mouse at 3 mg/kg, ip. In kind it is ADME, organism-based. Also noted: dose 3 mg/kg, route intraperitoneal. The conditions noted are these: in vivo.
The nature of series [6]: Metabolic stability in human plasma assessed as compound remaining after 1 hr. In kind it is ADME, cell-free. As to conditions: read-out: Stability.
For series [7], the target named is T1, Monocarboxylate transporter 4 (Homo sapiens, UniProt O15427).
T1 sequence (O15427 whole entry): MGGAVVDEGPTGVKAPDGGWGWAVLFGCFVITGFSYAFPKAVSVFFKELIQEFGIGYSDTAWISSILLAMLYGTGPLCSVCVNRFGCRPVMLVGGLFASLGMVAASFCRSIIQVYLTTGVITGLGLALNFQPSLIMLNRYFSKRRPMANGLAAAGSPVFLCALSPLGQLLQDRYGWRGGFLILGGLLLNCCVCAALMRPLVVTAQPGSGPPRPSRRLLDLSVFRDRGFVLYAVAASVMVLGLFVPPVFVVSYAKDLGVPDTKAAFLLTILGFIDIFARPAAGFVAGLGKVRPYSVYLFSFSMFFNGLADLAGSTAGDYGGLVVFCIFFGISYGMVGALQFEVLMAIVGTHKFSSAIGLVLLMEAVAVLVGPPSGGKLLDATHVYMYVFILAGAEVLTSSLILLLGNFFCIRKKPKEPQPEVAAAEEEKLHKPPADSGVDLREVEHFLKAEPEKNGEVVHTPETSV
The conditions noted are these: siha.
Description: Inhibition of MCT4-mediated [14C]-lactate uptake in human SiHa cells in lactate-containing medium assessed as remaining lactate concentration in culture medium after 12 mins by liquid scintillation counting

Series [8] in a line: Half life in human liver microsomes. In kind it is ADME, Microsome. For orientation: Microsomes from liver hold many membrane-bound enzymes, among them those of drug oxidation.
The test system of series [9] is SiHa. The experiment in a line: Cytotoxicity against human SiHa cells in glucose-containing medium after 72 hrs by MTT assay presence of pyruvate. The series is classed as functional, cell-based.
For series [10], the system named is Mus musculus. The experiment in a line: Toxicity in C57Bl6/J mouse assessed as mortality at 3 mg/kg, ip. The conditions noted are these: in vivo. Also noted: dose 3 mg/kg, route intraperitoneal. In kind it is organism-based.
The nature of series [11]: Aqueous solubility of the compound in PBS buffer at pH 7.4. In kind it is physicochemical.
In series [12] the target is T2, Monocarboxylate transporter 4 (Homo sapiens) (UniProt O15427).
T2 sequence (whole entry): T1 sequence (O15427 whole entry)
The experiment in a line: Ratio of alpha-cyano-4-hydroxycinnamate IC50 to compound IC50 for MCT4-mediated [14C]-lactate uptake in human SiHa cells in lactate-containing medium assessed as remaining lactate concentration in culture medium after 24 hrs by liquid scintillation counting. The series is classed as cell-based.

Series [13] addresses T1, Monocarboxylate transporter 4. Briefly: Inhibition of MCT4-mediated [14C]-lactate uptake in human SiHa cells in lactate-containing medium assessed as remaining lactate concentration in culture medium after 24 hrs by liquid scintillation counting. The series is classed as cell-based.
Series [14] has as its system SiHa. The experiment in a line: Induction of apoptosis in human SiHa cells in lactate-containing medium assessed as caspase-3 cleavage at 10 uM after 48 hrs by Western blot analysis. In kind it is functional, cell-based. In general terms: In western blotting, separated proteins are transferred to a membrane and probed.
Series [15] can be described thus: Half life in mouse liver microsomes. The series is classed as ADME, Microsome.
Series [16] can be described thus: Tmax in mouse at 3 mg/kg, ip. Also noted: dose 3 mg/kg, route intraperitoneal. The series is classed as ADME, organism-based. As to conditions: in vivo.
Series [17] in a line: Cmax in mouse at 3 mg/kg, ip. The series is classed as ADME, organism-based. Also noted: dose 3 mg/kg, route intraperitoneal. As to conditions: in vivo.
In series [18] the test system is Mus musculus. Briefly: Toxicity in C57Bl6/J mouse assessed as induction of anticoagulant at 3 mg/kg, ip by prothrombin time test. The series is classed as organism-based. Also noted: dose 3 mg/kg, route intraperitoneal. As to conditions: in vivo.
Series [19] has as its system SiHa. The experiment in a line: Cytotoxicity against human SiHa cells in glucose-containing medium after 72 hrs by MTT assay absence of pyruvate. In kind it is functional, cell-based.
The nature of series [20]: Chemical stability of the compound in simulated gastric fluid assessed as compound remaining after 1 hr. In kind it is physicochemical. As to conditions: read-out: Stability.
Series [21] is described as follows: Half life in human hepatocytes. In kind it is ADME, cell-based, Hepatocyte.
Series [22] deals with SiHa. The experiment in a line: Cytotoxicity against human SiHa cells in glucose-containing medium after 72 hrs by MTT assay. The series is classed as functional, cell-based.
The nature of series [23]: Chemical stability of the compound in simulated intestinal fluid assessed as compound remaining after 4 hrs. The series is classed as physicochemical. The conditions noted are these: read-out: Stability.
Series [24] is described as follows: Metabolic stability in mouse plasma assessed as compound remaining after 1 hr. In kind it is ADME, cell-free. As to conditions: read-out: Stability.
In series [25] the test system is SiHa. The experiment in a line: Cytotoxicity against human SiHa cells in lactate-containing medium after 72 hrs by MTT assay. In kind it is functional, cell-based.
In series [26] the test system is SiHa. The experiment in a line: Cytotoxicity against human SiHa cells in glucose-containing medium at 10 uM under normoxia condition after 72 hrs by MTT assay. The series is classed as functional, cell-based.

One may read the AUC(0-inf) as the area under the concentration-time curve extrapolated to infinity. High values mean more exposure, low ones less exposure. Usually half-life stands for the time in which the quantity being followed falls by half. A higher half-life goes with slow loss. One may read the IC50 as the point on the concentration scale where inhibition reaches its midpoint. What is called solubility is how much of the substance goes into solution per volume. Broadly, the Tmax is the time from dosing to the highest level. Broadly, the Cmax is the peak of the concentration-time curve. A word on the EC50: it is the concentration giving half of the maximal effect. Read a high EC50 as a need for much substance.

In brackets after ≈: the same amount, converted by molar mass. Activity calls are given as the source filed them. No cut-off for these calls is given here.

As for `CC(=O)CC(c1ccccc1)c1c(O)c2ccccc2oc1=O` (stereo unspecified) [WARFARIN], the Activity entry in the series on Mus musculus [1] and in the series on Mus musculus [2] was “Toxic” throughout.
Regarding `CN(Cc1ccccc1)c1ccc2cc(C(=O)O)c(=O)oc2c1`, the outcome in the series with SiHa [3], in the series on SiHa [9], in the series with SiHa [19], with SiHa [22] and in the series with SiHa [26] was inactive. Moreover, the AUC(0-inf) in series [4] is 935 ng·h/mL. The half-life in [5] was 4.5 h; in series [8], above 1 h; in series [15], above 1 h; in [21], above 2 h. In addition, the remaining at 1 h in [6] is 44%; in series [20], 105%; in series [24], 103%. In addition, the values for the IC50 in series [7] and in series [13] were 0.01 µM and 0.059 µM, respectively. In addition, the Activity entry in the series with Mus musculus [10] and in the series on Mus musculus [18] was “Non-toxic” each time. Besides, in series [11], the solubility turned out to be 58 µM (≈ 17.9 µg/mL). Besides, the Ratio IC50 in series [12] was determined as 3. The result in the series on SiHa [14] was Active. The time of peak concentration (Tmax) in series [16] was 0.167 h. The Cmax in series [17] is 1250 ng/mL. For the same compound, the remaining at 4 h in series [23] was 91%. In the series on SiHa [25], this compound had an EC50 of 0.22 µM.
In the case of `O=C(O)c1cc2ccc(OCCc3ccccc3)cc2oc1=O`, in [13], the IC50 was 2.4 µM. Also, the outcome in the series with SiHa [22] was inactive. Further, the midpoint of the response in the series on SiHa [25], the EC50, lay at 5.6 µM.
`N#C/C(=C\c1ccc(O)cc1)C(=O)O` [alpha-CYANO-4-HYDROXYCINNAMIC ACID]: the results for the IC50 in [7] and in [13] were 10.7 µM and 43.5 µM, respectively. Further, the result with SiHa [22] was inactive. The compound further gave an EC50 in the series with SiHa [25] of 10.7 µM.
As for `Cc1c(C(=O)O)c(=O)oc2cc(O)ccc12`, in series [13], the IC50 was above 30 µM. Also, the result in the series on SiHa [22] was inactive. This compound had an EC50 in the series on SiHa [25] above 30 µM.
Turning to `O=C(O)c1cc2ccc(N3CCCC3)cc2oc1=O`, in series [13], the IC50 is above 30 µM. The outcome in the series with SiHa [22] was inactive. Also, the EC50 in the series with SiHa [25] was 14.3 µM.
The like results for `CN(C)c1ccc2cc(C(=O)O)c(=O)oc2c1` were, in that order, 1.4 µM, “inactive” and 2.9 µM.
The like results for `O=C(O)c1cc2ccc(OCc3ccc(F)cc3)cc2oc1=O` were, in that order, 1.25 µM, “inactive” and 3.9 µM.
The like results for `COc1ccc2c(C)c(C(=O)O)c(=O)oc2c1` were, in that order, above 30 µM, “inactive” and above 30 µM.
Consider `O=C(O)c1cc2ccc(OCc3cccc(F)c3)cc2oc1=O`, for which the outcome in the series on SiHa [25] was inactive.
On to `O=C(O)c1cc2ccc(OCc3ccccc3)cc2[nH]c1=O`, for which, in [13], the IC50 was above 30 µM. In the series with SiHa [22], the result was inactive. In the series on SiHa [25], the EC50 is above 30 µM.
As to `O=C(O)c1cc2ccc(OCc3ccccc3)cc2n(Cc2ccccc2)c1=O`, in series [13], the IC50 is above 30 µM. The result in the series on SiHa [22] was inactive. Also, the EC50 in the series with SiHa [25] is above 30 µM.
`Cn1c(=O)c(C(=O)O)cc2ccc(OCc3ccccc3)cc21`: the IC50 in [13] is above 30 µM. In the series on SiHa [22], the result was inactive. Besides, the EC50 in the series with SiHa [25] is above 30 µM.
For `COc1ccc2cc(C(=O)O)c(=O)oc2c1`, the IC50 in [13] is 2.3 µM. For the same compound, the result in the series with SiHa [22] was inactive. This compound also came in with an EC50 in the series with SiHa [25] of 9.8 µM.
On to `O=C(O)c1cc2cc3c4c(c2oc1=O)CCCN4CCC3`, for which, in series [12], the Ratio IC50 was 50. In series [13], the IC50 was determined as 0.73 µM. For the same compound, the outcome in the series on SiHa [22] was inactive. The same compound showed an EC50 with SiHa [25] of 1.2 µM.
For the compound `O=C(O)c1cc2ccc(OC3Cc4ccccc4C3)cc2oc1=O`, the outcome in the series on SiHa [25] was inactive.
The same measure, in the same setting: the entry for `O=C(O)c1cc2ccc(OCc3cc(C(F)(F)F)cc(C(F)(F)F)c3)cc2oc1=O` is “inactive”; for `O=C(O)c1cc2ccc(OCn3nnc4ccccc43)cc2oc1=O` it is “inactive”.
As for `CCn1c(=O)c(C(=O)O)cc2ccc(OCc3ccccc3)cc21`, the IC50 in series [13] is above 30 µM. In the series with SiHa [22], the result was inactive. Also, the EC50 with SiHa [25] is above 30 µM.
Take `CC(C)=CCC/C(C)=C/COc1ccc2cc(C(=O)O)c(=O)oc2c1`: the result in the series with SiHa [25] was inactive.
Take `O=C(O)c1cc2ccc(N3CCOCC3)cc2oc1=O`: the IC50 in series [13] came to 7.9 µM. In addition, the outcome with SiHa [22] was inactive. The compound also returned an EC50 in the series with SiHa [25] of 17.5 µM.
The matching figures for `O=C(O)c1cc2ccc(OCc3ccccc3)cc2oc1=O`: 1.9 µM, “inactive” and 9.1 µM.
The like results for `Cc1c(C(=O)O)c(=O)oc2cc(OCc3ccccc3)ccc12` were, in that order, above 30 µM, “inactive” and above 30 µM.

(Values after ChEMBL document CHEMBL2440061, “Synthesis and pharmacological evaluation of carboxycoumarins as a new antitumor treatment targeting lactate transport in cancer cells” (Bioorg Med Chem, 2013).)
